How the values were obtained:
[1] = target: T1, serotoninergic 5-HT1A receptor (Homo sapiens, UniProt P08908); test: Binding assay 5-HT1A (h), [3H]8-OH-DPAT, HEK-293 cells; design: expressed in transfected cells; host or cells: HEK-293 cells; details: for inhibition at 1 µM: read-out: 5-HT1A
T1 sequence (P08908 1-422): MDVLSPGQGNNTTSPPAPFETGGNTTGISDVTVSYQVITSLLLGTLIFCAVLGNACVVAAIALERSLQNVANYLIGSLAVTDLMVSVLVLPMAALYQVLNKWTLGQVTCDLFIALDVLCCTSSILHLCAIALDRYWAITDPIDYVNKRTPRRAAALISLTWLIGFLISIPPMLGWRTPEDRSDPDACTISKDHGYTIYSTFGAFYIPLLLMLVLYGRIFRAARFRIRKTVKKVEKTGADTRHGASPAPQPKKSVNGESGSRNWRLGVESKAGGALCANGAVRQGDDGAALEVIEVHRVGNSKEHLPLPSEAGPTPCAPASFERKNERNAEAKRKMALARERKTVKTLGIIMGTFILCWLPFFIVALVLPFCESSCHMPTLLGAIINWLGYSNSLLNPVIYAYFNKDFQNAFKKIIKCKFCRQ
Summary of the method: (§1)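 At 1×10^−6 M, compounds were assessed for their effect on specific radioligand binding, computed as total less nonspecific binding (excess unlabelled ligand present).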

[2] = target: dopaminergic D3 receptor (Homo sapiens, UniProt P35462); test: Binding assay D3 (h), [3H]methyl-spiperone, CHO cells; design: expressed in transfected cells; host or cells: CHO cells; details: for inhibition at 1 µM: read-out: D3 [%]
dopaminergic D3 receptor, sequence (P35462 whole entry): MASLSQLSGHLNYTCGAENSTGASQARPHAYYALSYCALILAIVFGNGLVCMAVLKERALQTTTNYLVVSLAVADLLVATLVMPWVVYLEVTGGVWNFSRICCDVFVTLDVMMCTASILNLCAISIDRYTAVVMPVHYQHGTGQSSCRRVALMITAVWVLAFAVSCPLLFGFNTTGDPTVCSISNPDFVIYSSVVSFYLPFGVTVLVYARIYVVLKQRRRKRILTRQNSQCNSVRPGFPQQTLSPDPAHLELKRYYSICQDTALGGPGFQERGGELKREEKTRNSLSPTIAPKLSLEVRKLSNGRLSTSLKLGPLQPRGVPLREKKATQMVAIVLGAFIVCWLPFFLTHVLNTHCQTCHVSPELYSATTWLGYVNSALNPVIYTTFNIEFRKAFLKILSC
Summary of the method: as §1

[3] = tested on: adrenergic α1 receptor; test: Binding assay α1 (non-selective), [3H]prazosin, rat cerebral cortex; details: percent inhibition of control specific binding; compounds tested at 1×10^−6 M
Summary of the method: as §1

[4] = target: T2, serotonine transporter (SERT) receptor (Homo sapiens, UniProt P31645); test: Binding assay SERT (h), [3H]imipramine, CHO cells; details: for inhibition at 1 µM: read-out: SERT [%]
T2 construct: expressed in transfected cells; host or cells: CHO cells
T2 sequence (P31645 whole entry): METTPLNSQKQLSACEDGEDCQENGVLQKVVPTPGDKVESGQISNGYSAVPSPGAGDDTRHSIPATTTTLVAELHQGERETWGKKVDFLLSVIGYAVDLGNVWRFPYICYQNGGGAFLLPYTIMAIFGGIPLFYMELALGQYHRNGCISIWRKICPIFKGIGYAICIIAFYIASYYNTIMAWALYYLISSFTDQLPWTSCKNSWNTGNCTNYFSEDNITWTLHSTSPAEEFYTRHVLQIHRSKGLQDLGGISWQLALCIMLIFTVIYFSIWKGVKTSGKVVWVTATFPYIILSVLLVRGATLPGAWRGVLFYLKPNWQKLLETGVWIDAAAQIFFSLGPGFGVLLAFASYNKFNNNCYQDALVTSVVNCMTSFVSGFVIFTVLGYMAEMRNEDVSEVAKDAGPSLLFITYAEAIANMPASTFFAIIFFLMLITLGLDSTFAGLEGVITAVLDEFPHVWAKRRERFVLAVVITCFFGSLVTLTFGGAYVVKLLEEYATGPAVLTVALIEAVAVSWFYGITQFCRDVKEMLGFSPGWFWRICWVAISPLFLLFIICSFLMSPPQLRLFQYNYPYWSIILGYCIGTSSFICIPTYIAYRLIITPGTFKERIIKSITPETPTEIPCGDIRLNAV
Summary of the method: as §1

[5] = target: serotoninergic 5-HT2A receptor (Homo sapiens, UniProt P28223); test: Binding assay 5-HT2A (h), [3H]ketanserin, HEK-293 cells; design: expressed in transfected cells; host or cells: HEK-293 cells; details: for inhibition at 1 µM: read-out: 5-HT2A
serotoninergic 5-HT2A receptor, sequence (P28223 whole entry): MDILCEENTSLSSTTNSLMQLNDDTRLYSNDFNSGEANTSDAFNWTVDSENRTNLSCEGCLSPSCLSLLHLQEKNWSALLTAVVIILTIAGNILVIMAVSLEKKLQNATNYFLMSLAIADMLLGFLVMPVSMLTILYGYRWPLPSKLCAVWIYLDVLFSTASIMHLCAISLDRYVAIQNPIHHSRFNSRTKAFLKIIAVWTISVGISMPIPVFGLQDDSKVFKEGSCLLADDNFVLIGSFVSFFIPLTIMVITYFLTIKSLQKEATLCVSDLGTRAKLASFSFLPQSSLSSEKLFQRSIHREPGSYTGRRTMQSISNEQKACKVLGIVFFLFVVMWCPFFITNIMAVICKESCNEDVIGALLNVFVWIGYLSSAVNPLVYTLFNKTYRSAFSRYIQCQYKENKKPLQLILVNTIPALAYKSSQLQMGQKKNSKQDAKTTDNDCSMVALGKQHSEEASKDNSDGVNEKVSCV
Summary of the method: as §1

[6] = target: serotoninergic 5-HT6 receptor (Homo sapiens, UniProt P50406); test: Binding assay 5-HT6 (h), [3H]LSD, CHO cells; design: expressed in transfected cells; host or cells: CHO cells; details: for inhibition at 1 µM: read-out: 5-HT6
serotoninergic 5-HT6 receptor, sequence (P50406 whole entry): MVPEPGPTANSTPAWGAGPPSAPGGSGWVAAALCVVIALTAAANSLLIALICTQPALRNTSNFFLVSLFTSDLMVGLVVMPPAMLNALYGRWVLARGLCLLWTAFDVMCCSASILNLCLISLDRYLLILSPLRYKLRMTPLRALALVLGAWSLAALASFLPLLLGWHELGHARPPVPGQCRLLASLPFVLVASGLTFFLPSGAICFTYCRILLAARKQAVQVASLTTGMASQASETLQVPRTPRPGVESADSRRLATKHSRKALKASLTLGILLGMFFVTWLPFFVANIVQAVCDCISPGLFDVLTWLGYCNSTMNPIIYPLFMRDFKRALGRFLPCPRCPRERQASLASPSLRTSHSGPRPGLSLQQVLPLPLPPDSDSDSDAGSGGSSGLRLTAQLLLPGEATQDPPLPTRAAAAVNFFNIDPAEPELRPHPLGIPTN
Summary of the method: as §1

[7] = target: dopaminergic D2 receptor (Homo sapiens, UniProt P14416); test: Binding assay D2S (h), [3H]methyl-spiperone, HEK-293 cells; design: expressed in transfected cells; host or cells: HEK-293 cells; details: for inhibition at 1 µM: read-out: D2 [%]
dopaminergic D2 receptor, sequence (P14416 1-414 isoform P14416-2): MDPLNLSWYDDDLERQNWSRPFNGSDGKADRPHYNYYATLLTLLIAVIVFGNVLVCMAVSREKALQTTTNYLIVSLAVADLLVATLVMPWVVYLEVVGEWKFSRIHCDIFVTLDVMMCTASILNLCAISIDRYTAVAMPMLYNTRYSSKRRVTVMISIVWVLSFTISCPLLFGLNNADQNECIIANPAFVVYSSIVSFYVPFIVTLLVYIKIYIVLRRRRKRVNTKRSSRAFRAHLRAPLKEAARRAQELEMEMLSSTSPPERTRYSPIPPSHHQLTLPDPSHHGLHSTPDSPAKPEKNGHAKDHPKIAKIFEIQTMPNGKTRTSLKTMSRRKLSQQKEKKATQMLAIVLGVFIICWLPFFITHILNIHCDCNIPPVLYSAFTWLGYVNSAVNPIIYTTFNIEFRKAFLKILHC
Summary of the method: as §1

[8] = target: serotoninergic 5-HT7 receptor (Homo sapiens, UniProt P34969); test: Binding assay 5-HT7 (h), [3H]LSD, CHO cells; design: expressed in transfected cells; host or cells: CHO cells; details: for inhibition at 1 µM: read-out: 5-HT7
serotoninergic 5-HT7 receptor, sequence (P34969 whole entry): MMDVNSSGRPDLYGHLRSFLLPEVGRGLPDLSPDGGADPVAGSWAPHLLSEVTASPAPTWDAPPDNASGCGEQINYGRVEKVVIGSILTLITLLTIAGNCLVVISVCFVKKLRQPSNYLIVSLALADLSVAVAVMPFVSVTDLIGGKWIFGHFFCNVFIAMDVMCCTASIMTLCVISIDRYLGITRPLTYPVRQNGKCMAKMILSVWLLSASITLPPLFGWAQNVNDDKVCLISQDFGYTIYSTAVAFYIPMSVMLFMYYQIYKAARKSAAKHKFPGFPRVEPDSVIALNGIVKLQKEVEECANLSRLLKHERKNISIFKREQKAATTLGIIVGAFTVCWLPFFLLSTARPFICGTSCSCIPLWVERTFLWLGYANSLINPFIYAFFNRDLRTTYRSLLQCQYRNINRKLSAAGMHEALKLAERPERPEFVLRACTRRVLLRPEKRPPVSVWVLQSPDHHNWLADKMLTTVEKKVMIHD
Summary of the method: as §1

[9] = percent inhibition of control specific binding, compounds tested at 1×10^−6 M

Cn1ccc2c(S(=O)(=O)NCCCN3CCC(c4noc5cc(F)ccc45)CC3)cccc21 [Compound 343, N-[3-[4-(6-Fluoro-1,2-benzoxazol-3-yl)piperidin-1-yl]propyl]-1-methyl-indole-4-sulphonamide]
inhibition at 1 µM [1]: 32% | inhibition at 1 µM [2]: 96% | α1 [%] [3]: 86% | inhibition at 1 µM [4]: 4% | inhibition at 1 µM [5]: 105% | inhibition at 1 µM [6]: 77% | inhibition at 1 µM [7]: 101% | inhibition at 1 µM [8]: 92%

N-[4-[4-(1H-Indol-4-yl)piperazin-1-yl]butyl]-1,3-benzodioxole-5-sulphonamide [Compound 365]
5-HT1A [1, 9]: 90% | D3 [%] [2, 9]: 100% | α1 [%] [3]: 100% | SERT [%] [4, 9]: 25% | 5-HT2A [5, 9]: 55% | 5-HT6 [6, 9]: 67% | D2 [%] [7, 9]: 99% | 5-HT7 [8, 9]: 95%

O=c1[nH]c2ccc(S(=O)(=O)NCCCCN3CCN(c4cccc5c4OCCO5)CC3)cc2o1 [Compound 403, N-[4-[4-(2,3-Dihydro-1,4-benzodioxin-5-yl)piperazin-1-yl]butyl]-2-oxo-3H-1,3-benzoxazole-6-sulphonamide]
inhibition at 1 µM [1]: 98% | inhibition at 1 µM [2]: 99% | α1 [%] [3]: 98% | inhibition at 1 µM [4]: -9% | inhibition at 1 µM [5]: 64% | inhibition at 1 µM [6]: -21% | inhibition at 1 µM [7]: 85% | inhibition at 1 µM [8]: 95%

Cc1[nH]c2ccc(Cl)cc2c1C1=CCN(CCCCNS(=O)(=O)c2cccc(O)c2)CC1 [Compound 369, N-[4-[4-(5-Chloro-2-methyl-1H-indol-3-yl)-3,6-dihydro-2H-pyridin-1-yl]butyl]-3-hydroxybenzenesulphonamide]
inhibition at 1 µM [1]: 62% | inhibition at 1 µM [2]: 97% | α1 [%] [3]: 50% | inhibition at 1 µM [4]: 29% | inhibition at 1 µM [5]: 79% | inhibition at 1 µM [6]: 99% | inhibition at 1 µM [7]: 67% | inhibition at 1 µM [8]: 7%

O=S(=O)(NCCCCN1CCC(c2noc3cc(F)ccc23)CC1)c1ccc(F)c(Cl)c1 [Compound 299, 3-Chloro-4-fluoro-N-[4-[4-(6-fluoro-1,2-benzoxazol-3-yl)piperidin-1-yl]butyl]benzenesulphonamide]
inhibition at 1 µM [1]: 45% | inhibition at 1 µM [2]: 98% | α1 [%] [3]: 98% | inhibition at 1 µM [4]: 14% | inhibition at 1 µM [5]: 89% | inhibition at 1 µM [6]: 84% | inhibition at 1 µM [7]: 87% | inhibition at 1 µM [8]: 75%

Cc1c(S(=O)(=O)NCCCCN2CCN(c3cccc4[nH]ccc34)CC2)sc2ccc(F)cc12 [Compound 364, 5-Fluoro-N-[4-[4-(1H-indol-4-yl)piperazin-1-yl]butyl]-3-methylbenzothiophene-2-sulphonamide]
inhibition at 1 µM [1]: 92% | inhibition at 1 µM [2]: 100% | α1 [%] [3]: 87% | inhibition at 1 µM [4]: 35% | inhibition at 1 µM [5]: 89% | inhibition at 1 µM [6]: 80% | inhibition at 1 µM [7]: 100% | inhibition at 1 µM [8]: 91%

O=S(=O)(NCCCN1CCC(c2noc3cc(F)ccc23)CC1)c1ccc2c(c1)OCCO2 [Compound 355, N-[3-[4-(6-Fluoro-1,2-benzoxazol-3-yl)piperidin-1-yl]propyl]-2,3-dihydro-1,4-benzodioxine-6-sulphonamide]
inhibition at 1 µM [1]: 60% | inhibition at 1 µM [2]: 97% | α1 [%] [3]: 105% | inhibition at 1 µM [4]: 45% | inhibition at 1 µM [5]: 103% | inhibition at 1 µM [6]: 75% | inhibition at 1 µM [7]: 99% | inhibition at 1 µM [8]: 84%

O=S(=O)(NCCCCN1CCN(c2nsc3ccccc23)CC1)c1cnc2ccccn12 [Compound 246, N-[4-[4-(1,2-Benzothiazol-3-yl)piperazin-1-yl]butyl]imidazo[1,2-a]pyridine-3-sulphonamide]
inhibition at 1 µM [1]: 91% | inhibition at 1 µM [2]: 86% | α1 [%] [3]: 99% | inhibition at 1 µM [4]: 31% | inhibition at 1 µM [5]: 88% | inhibition at 1 µM [6]: 49% | inhibition at 1 µM [7]: 98% | inhibition at 1 µM [8]: 86%

O=S(=O)(NCCCN1CCC(c2noc3cc(F)ccc23)CC1)c1csc2ccccc12 [Compound 346, N-[3-[4-(6-Fluoro-1,2-benzoxazol-3-yl)piperidin-1-yl]propyl]benzothiophene-3-sulphonamide]
inhibition at 1 µM [1]: 51% | inhibition at 1 µM [2]: 93% | α1 [%] [3]: 103% | inhibition at 1 µM [4]: 17% | inhibition at 1 µM [5]: 97% | inhibition at 1 µM [6]: 95% | inhibition at 1 µM [7]: 100% | inhibition at 1 µM [8]: 87%

O=S(=O)(NCCCCN1CCC(c2noc3cc(F)ccc23)CC1)c1cccc(Cl)c1 [Compound 105, 3-Chloro-N-[4-[4-(6-fluoro-1,2-benzoxazol-3-yl)piperidin-1-yl]butyl]benzenesulphonamide]
inhibition at 1 µM [1]: 41% | inhibition at 1 µM [2]: 88% | α1 [%] [3]: 96% | inhibition at 1 µM [4]: -11% | inhibition at 1 µM [5]: 91% | inhibition at 1 µM [6]: 87% | inhibition at 1 µM [7]: 107% | inhibition at 1 µM [8]: 85%

O=S(=O)(NCCCCN1CCC(c2noc3cc(F)ccc23)CC1)c1cccc(Br)c1 [Compound 109, 3-Bromo-N-[4-[4-(6-fluoro-1,2-benzoxazol-3-yl)piperidin-1-yl]butyl]benzenesulphonamide]
inhibition at 1 µM [1]: 86% | inhibition at 1 µM [2]: 99% | α1 [%] [3]: 101% | inhibition at 1 µM [4]: 15% | inhibition at 1 µM [5]: 93% | inhibition at 1 µM [6]: 84% | inhibition at 1 µM [7]: 100% | inhibition at 1 µM [8]: 92%

O=S(=O)(NCCCCN1CCN(c2noc3ccccc23)CC1)c1ccc(Cl)c(Cl)c1 [Compound 93, N-[4-[4-(1,2-Benzoxazol-3-yl)piperazin-1-yl]butyl]-3,4-dichlorobenzenesulphonamide]
inhibition at 1 µM [1]: 48% | inhibition at 1 µM [2]: 86% | α1 [%] [3]: 97% | inhibition at 1 µM [4]: 0% | inhibition at 1 µM [5]: 90% | inhibition at 1 µM [6]: 92% | inhibition at 1 µM [7]: 98% | inhibition at 1 µM [8]: 88%

Cc1cccc(S(=O)(=O)NCCCN2CCN(c3cccc4c3OCCO4)CC2)c1 [Compound 414, N-[3-[4-(2,3-Dihydro-1,4-benzodioxin-8-yl)piperazin-1-yl]propyl]-3-methylbenzenesulphonamide]
inhibition at 1 µM [1]: 98% | inhibition at 1 µM [2]: 81% | α1 [%] [3]: 88% | inhibition at 1 µM [4]: 18% | inhibition at 1 µM [5]: 76% | inhibition at 1 µM [6]: -15% | inhibition at 1 µM [7]: 48% | inhibition at 1 µM [8]: 94%

O=S(=O)(NCCCCN1CCN(c2noc3ccccc23)CC1)c1ccc2c(c1)CCO2 [Compound 289, N-[4-[4-(1,2-Benzoxazol-3-yl)piperazin-1-yl]butyl]-2,3-dihydrobenzofuran-5-sulphonamide]
inhibition at 1 µM [1]: 68% | inhibition at 1 µM [2]: 79% | α1 [%] [3]: 100% | inhibition at 1 µM [4]: 9% | inhibition at 1 µM [5]: 94% | inhibition at 1 µM [6]: 78% | inhibition at 1 µM [7]: 99% | inhibition at 1 µM [8]: 91%

O=S(=O)(NCCCN1CC=C(c2c[nH]c3ccc(F)cc23)CC1)c1cccc(O)c1 [Compound 437, N-[3-[4-(5-Fluoro-1H-indol-3-yl)-3,6-dihydro-2H-pyridin-1-yl]propyl]-3-hydroxybenzenesulphonamide]
inhibition at 1 µM [1]: 24% | inhibition at 1 µM [2]: 100% | α1 [%] [3]: 52% | inhibition at 1 µM [4]: 105% | inhibition at 1 µM [5]: 74% | inhibition at 1 µM [6]: 47% | inhibition at 1 µM [7]: 57% | inhibition at 1 µM [8]: 83%
